Paper PMC8595862 (Environmental toxicology and pharmacology, 2021)
Counter-ions that a name gives are not always drawn.

What was measured:
[1] = rats, 0.6 mg/kg intravenous injection; ref Grimm et al., 2015a; cited from earlier work
[2] = tested on: human hepatic microsomal sulfatase; test: Human hepatic microsomal sulfatase assay; type: in vitro ADME; settings: relative to DHEA sulfate
[3] = human cohort exposed to PCBs; calculated; ref Quinete et al., 2017; cited from earlier work

Compound | Catalytic efficiency compared with DHEA sulfate [2] | Plasma half-life [3] | also measured
O=S(=O)(O)Oc1ccc(-c2cccc(Cl)c2)cc1Cl [4-PCB 11 Sulfate, 3,3’-dichloro-4-biphenylsulfate] |  |  | Tissue uptake, metabolism and urinary excretion [1]: taken up by tissues and further metabolized, with only a small percentage excreted in the urine
O=S(=O)(O)Oc1cc(Cl)c(-c2cc(Cl)ccc2Cl)cc1Cl [4-PCB 52 Sulfate, 2,2’,5,5’-tetrachloro-4-biphenylsulfate] | over 20 times |  | 
Oc1ccc(-c2ccc(Cl)cc2Cl)cc1Cl [4’-OH-PCB 25, 2,3’,4-trichloro-4’-hydroxybiphenyl] |  | 6.46 years | 
O=S(=O)(O)Oc1ccc(-c2ccc(Cl)c(Cl)c2)cc1 [4’-PCB 12 Sulfate, 3,4-dichloro-4’-biphenylsulfate] | the same as DHEA sulfate |  | 
Clc1ccc(-c2ccc(Cl)cc2Cl)cc1 [PCB 28, 2,4,4’-trichlorobiphenyl] |  | 4.32 years | 
